Among the test systems are MDA-MB-231 breast; DU-145 prostate; T-47D breast; PC-3 prostate; DMS 273 small cell lung.
Assay in all cases: NCI anticancer screen, dose series, 48 h

This note sets out measurements from PubChem BioAssay (NCI).

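Interpolation was linear, between the two tested concentrations surrounding the appropriate level; five concentrations were tested over 48 hours in 96-well plates. The concentration for full growth arrest is given as TGI.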

On to `CC1(C)N=C(/C(Cl)=[N+](/[O-])C(=O)c2ccc(Cl)cc2)C(C)(C)N1O`, for which the TGI was 40 µM in the experiment with MDA-MB-231 breast, over 100 µM in the experiment on DU-145 prostate, 95.1 µM in the experiment on T-47D breast and 37.5 µM in the experiment on PC-3 prostate.

In the experiment on DMS 273 small cell lung, `CCC12CCC[C@@]13C=C[C@H](O3)C(C)(C)C2=O` (stereo not given in full) came in with a TGI of over 100 µM.
